From publication PMC12022980, “Rational Design of PROTAC Linkers Featuring Ferrocene as a Molecular Hinge to Enable Dynamic Conformational Changes” (Journal of the American Chemical Society, 2025) come the findings set out here.

Series [1] can be described thus: Mouse liver microsome stability. It counts as in vitro ADME. Conditions: liver microsomes. On the procedure:
Mouse Liver Microsome Stability
Testing compound (1.5 μL) or reference compound (500 μM in 5% iPrOH and 95% acetonitrile) was mixed with 18.75 μL of 20 mg/mL liver microsome (Corning) and 479.75 μL of potassium phosphate buffer (0.1 M potassium phosphate buffer, 1 mM EDTA, pH 7.4). The reaction was started by mixing 30 μL of the above mixture (prewarmed to 37 °C) with 15 μL of 6 mM NADPH stock solution (prewarmed to 37 °C). After incubating for 5, 15, 30, or 45 min, 135 μL of acetonitrile containing internal standard was added to stop the reaction. For 0 min, the compound and microsome mixture were mixed with acetonitrile first before adding NADPH. After quenching, the reaction mixture was centrifuged, and the supernatant was taken and diluted for LC-MS
For orientation: Microsomes from liver hold many membrane-bound enzymes, among them those of drug oxidation.

Series [2] is described as follows: LogD7.4 shake flask (octanol/phosphate buffer). It counts as physicochemical. Conditions: octanol/potassium phosphate buffer, pH 7.4. The source says:
The modulation of lipophilicity could play a critical role in optimizing PROTACs. We thus utilized traditionally measured LogD values from shake flask experiments alongside chromatographically assessed ChromLogD values.[72] […] By incorporating ferrocene, permeability may be improved due to the feature of promoting IMHB-mediated compact conformations, while also balancing the lipophilicity of the polar ligand/PEG linkers. However, while sufficient lipophilicity is required for passive uptake over the cell membrane, it may also drive poor aqueous solubility.[73]
(§1) For the permeabilised-cell assay, 10 µL of digitonin was added, and plates were incubated in darkness for 5 minutes to allow permeabilisation. In each well 10 µL of the 10x PROTAC and vehicle control dilutions were dispensed. A 100x NanoBRET tracer solution (50 µM for VHL permeabilised-cell assay) was prepared with 100% DMSO, then diluted to a 20x solution with tracer dilution buffer. A 5 µL volume of tracer was dispensed into each well at a final concentration of 0.5 µM, and the plate was mixed at 300 RPM for 15 seconds. Finally, 50 µL of a 3x substrate solution (8.8 µL NanoBRET Nano-Glo substrate and 3,500 µL Opti-MEM) was added, and plates were incubated for 1 minute at room temperature before reading on a GloMax Discover as […]
HiBiT Lytic Assay with Zosuquidar Co-treatment […]
Luminescence was measured using the GloMax® Multiplex Luminescence and Fluorescence Protocol for 96-well plates. The luminescence signal for each well was normalised to the fluorescence signal and further normalised to the mean values from iPrOH-treated controls, then expressed as a ratio relative to the vehicle control. Curve fitting and DC50 values were determined in GraphPad Prism v.10.0.3 using nonlinear regression with a three-parameter logistic model to calculate DC50 values. […]
(§2) of 1 mL/min and a column temperature of 40 °C. […] Data were analysed with Shimadzu Open Solution Data Browser to obtain the RTs of the peak for each individual compound and standards. […]
ChromLogD values for the compounds were then calculated based on the regression curve. […]

The nature of series [3]: ChromLogD (chromatographic). The series is classed as physicochemical. Conditions: HPLC on Hypersil GOLD-C18 column, pH 7.4. On the procedure: as §1
HiBiT Lytic Assay with Zosuquidar Co-treatment
A modified HiBiT lytic assay was used to assess the activity of zosuquidar on the BET degradation. […]
Luminescence was measured using the GloMax® Multiplex Luminescence and Fluorescence Protocol for 96-well plates. The luminescence signal for each well was normalised to the fluorescence signal and further normalised to the mean values from iPrOH-treated controls, then expressed as a ratio relative to the vehicle control. Curve fitting and DC50 values were determined in GraphPad Prism v.10.0.3 using nonlinear regression with a three-parameter logistic model to calculate DC50 values.
The stock solution of each test item was prepared from a 10mM stock in iPrOH, which was further diluted 1:50 with […] to obtain a 0.2 mM solution (4 µL of the test item stock solution is diluted with 196 µL DMSO) in insert vials. The samples were analysed on an HPLC system equipped with a HPLC-ThermoScientific Hypersil GOLD-C18 column (2.1 x 50 mm, 1.9 µm) and by MS detection using electrospray ionization (ESI) and Atmospheric Pressure Chemical Ionization (APCI) on a Shimadzu LCMS 2050. […]
as §2

For series [4], the system named is HCT116 cells. Description: Cell viability assay (CellTiter-Glo). The series is classed as cell-based. The settings on record: Homo sapiens, HCT-116, 72 h; read-out: IC50 ± S.D. HCT116. On the procedure: (§3) Therefore, we assessed the impact of the BET-degrading FerroTAC AS6 on the viability of BET-sensitive HCT116 cells and HEK293 cells (Figure 6A). […]
(§4) room temperature and protected from light. Thereafter, the membranes were washed with TBS-T three times for 10 min, and protein bands were acquired using a ChemiDoc MP imaging system (Bio-Rad). Band quantification was performed using Image Lab software and reported as ratio of each protein band relative to […]
(§5) Peak elution was monitored using ultraviolet absorbance at 280 nm.
A general note: In ATP-based viability assays light output follows the ATP content of the culture.

Series [5] concerns HEK293 cells. Description: Cell viability assay (CellTiter-Glo). The series is classed as cell-based. The settings on record: 72 h. On the procedure:
as §3, §4, §5

Series [6] in a line: Plasma stability assay. The series is classed as in vitro ADME. The settings on record: mouse plasma; read-out: stability T1/2 in mouse plasma. The procedure:
Frozen plasma was thawed at 37 °C and centrifuged at 3000 rpm for 8 min to remove clots, and the supernatant was used in the experiment. The pH of the plasma was recorded, and only the pH range between 7.4 and 8 was used. The plasma and compound solution were prewarmed to 37 °C. 10 µL of prewarmed testing compound or reference compound (procaine) solution (20 μM in 0.05 mM sodium phosphate buffer (pH 7.4) with 0.5% BSA) was mixed with 90 μL of plasma at different time points to allow for 5, 15, 30, 45, and 60 min of incubation time. For 0 min, the plasma was mixed with vehicle only. Acetonitrile was added to the compound and plasma mixture to quench the reaction, and the resulting mixture was centrifuged (5594g for 15 min). The

Series [7] in a line: Kinetic solubility in phosphate buffer and FeSSIF. It counts as physicochemical. Conditions: kinetic from iPrOH stock. On the procedure:
Solubility in Phosphate Buffer and Fed State Simulated Intestinal Fluid (FeSSIF) 8 µL of reference or test compound stock solution (10 mM in iPrOH) was added to 792 μL of 100 mM phosphate buffer (pH 7.4) or FeSSIF (pH 5.8). The resulting mixture was shaken for 1 h (1000 rpm) at room temperature and then centrifuged for 10 min (12 000 rpm) to remove the undissolved particles. The supernatant was collected and diluted 10 times and 100 times separately with 100 mM phosphate buffer or FeSSIF. Five microliters of the supernatant samples (no diluted, 10 times diluted, 100 times diluted) were mixed with 95 μL of acetonitrile (containing internal standard) separately before injecting into LC-MS/MS for analysis. […]

Series [8] has as its target T1, pVHL30 (Homo sapiens, UniProt P40337).
T1 construct: endogenous in cells; host or cells: HEK293 (ATCC)
Nature of the series: Western blot VHL degradation in HEK293 cells. The settings on record: HEK293, 4 h, 1 μM. It counts as cell-based.
Procedure: To further elucidate the mode of action of FerroTAC AS2, we explored its dependency on ubiquitination and proteasome activity.
A) Representative immunoblots of VHL protein levels after treatment of
HEK293 cells. Cells were treated with 0.1% EtOH, 0.1 μM or 1 μM of the indicated compounds for 4 and 24 h.
Controls were included at 1 μM for 24 h. Mean values of two biologically independent experiments.
Representative time-course immunoblots of VHL protein levels after treatment of HEK293 cells treated with
Cells were treated with 0.1% EtOH and controls at 1 μM. Mean values of two biologically
independent experiments. Apparent half-life values (t 1/2) were estimated by fitting band intensity against time
using a single-phase exponential decay model. C) Representative immunoblots of VHL protein levels in
neddylation inhibitor MLN4924 (3 μM) and VHL inhibitor VH032 (50 μM). The amount of EtOH (0.1%) and
DMSO (0.5%) is fixed in all samples. Band quantification was performed using ImageJ software and reported
(in black and black) as relative amount as ratio of each protein band relative to the lane’s loading control
(tubulin). VHL/tubulin protein ratios were normalised to the average of the controls (100%).
HEK293 and HCT116 cell lines, purchased from ATCC, were cultured in Dulbecco’s modified Eagle’s medium (DMEM, Gibco) supplemented with 10% fetal bovine serum (FBS, Gibco), L-glutamine (2 mM, Gibco) and 100 μg/mL of penicillin/streptomycin (Gibco). All cell lines were maintained in a humidified incubator at 37 °C and 5% CO2 for no more than 30 passages. Cells were routinely tested for mycoplasma contamination.
Cell Treatment for Immunoblotting
depending on the experimental setup. Cells were treated in fresh medium with the indicated compounds under indicated conditions with a final EtOH or iPrOH concentration of 0.01% (v/v) to 0.1% (v/v) depending on the experimental setup. […]
stored at −80°C. Protein concentration was determined by bicinchoninic acid (BCA) assay (Thermo Fisher […]
Quantitative Immunoblotting […]

The structures appear in SMILES notation. Converted amounts (≈) assume the structure as drawn. Read-outs that look alike come from different tables or passages of the source.

T1 sequence (P40337 whole entry): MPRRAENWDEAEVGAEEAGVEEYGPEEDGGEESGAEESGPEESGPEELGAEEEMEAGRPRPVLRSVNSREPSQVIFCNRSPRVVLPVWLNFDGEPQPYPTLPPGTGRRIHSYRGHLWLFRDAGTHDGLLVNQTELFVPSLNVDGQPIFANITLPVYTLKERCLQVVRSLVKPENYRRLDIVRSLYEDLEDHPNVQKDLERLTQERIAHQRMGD

The compound `Cc1ncsc1-c1ccc(CNC(=O)C2CC(O)CN2C(=O)C(NC(=O)COCCOCCOCCNC(=O)CC2N=C(c3ccc(Cl)cc3)c3c(sc(C)c3C)-n3c(C)nnc32)C(C)(C)C)cc1` (stereo not shown) [MZ1] returned a CLint scaled at 1 µM in series [1] (pH 7.4) of 2180 mL/min/kg. For the same compound, the half-life at 1 µM in series [1] (pH 7.4, read-out: stability T1/2 in mouse microsome) is 2.5 min. In series [2], the logD turned out to be 3.8. The same compound showed a chromatographic logD in series [3] of 4.1. The IC50 in series [4] is 1330 nM. Moreover, the “cytotoxicity in HEK293 cells (in words)” value in series [5] is on record as “almost no intrinsic cytotoxicity”. Moreover, in series [6], the half-life at 2 µM amounted to 5.78 h. Further, the solubility (kinetic) at 1 h stood at 51.1 µM (≈ 51.2 µg/mL) in series [7] (FeSSIF pH 5.8, read-out: kinetic solubility FeSSIF (pH 5.8)) and 22.4 µM (≈ 22.4 µg/mL) in series [7] (phosphate buffer, aqueous buffer, PBS pH 7.4, read-out: kinetic solubility PBS (pH 7.4)).

For `Cc1ncsc1-c1ccc([C@H](C)NC(=O)[C@@H]2C[C@@H](O)CN2C(=O)[C@@H](NC(=O)COCCOCCOCCOCCOCCOCC(=O)N[C@H](C(=O)N2C[C@H](O)C[C@H]2C(=O)N[C@@H](C)c2ccc(-c3scnc3C)cc2)C(C)(C)C)C(C)(C)C)cc1` [MeCM11], the “pVHL30 degradation (in words)” value in series [8] is listed as “failed to induce significant degradation”.

As usually defined, the CLint scaled is the capacity of the preparation to metabolise the compound, expressed as a volume cleared per time. The low end stands for slow turnover, the high end for rapid turnover. The term logD denotes the decadic logarithm of the distribution of all forms, ionised or not, between an organic phase and buffer at a given pH. A low value points to a more hydrophilic compound. One may read the chromatographic logD as a lipophilicity value derived from retention on a column. A higher chromatographic logD goes with a more lipophilic compound. A word on the IC50: it is the concentration at which inhibition is half-maximal. What is called solubility (kinetic) is the concentration staying in solution when a stock, usually in DMSO, is diluted into the medium.
